24 compounds from patent US8822449B2, “Substituted aminoindanes and analogs thereof, and the pharmaceutical use thereof” (Sanofi, priority 2008, dated 2014) can be followed below.

The target in the experiment is T1, sodium-proton exchanger of subtype 3 (NHE3) (Homo sapiens, UniProt P48764).
T1 construct: expressed in transfected cells
T1 sequence (P48764 26-834): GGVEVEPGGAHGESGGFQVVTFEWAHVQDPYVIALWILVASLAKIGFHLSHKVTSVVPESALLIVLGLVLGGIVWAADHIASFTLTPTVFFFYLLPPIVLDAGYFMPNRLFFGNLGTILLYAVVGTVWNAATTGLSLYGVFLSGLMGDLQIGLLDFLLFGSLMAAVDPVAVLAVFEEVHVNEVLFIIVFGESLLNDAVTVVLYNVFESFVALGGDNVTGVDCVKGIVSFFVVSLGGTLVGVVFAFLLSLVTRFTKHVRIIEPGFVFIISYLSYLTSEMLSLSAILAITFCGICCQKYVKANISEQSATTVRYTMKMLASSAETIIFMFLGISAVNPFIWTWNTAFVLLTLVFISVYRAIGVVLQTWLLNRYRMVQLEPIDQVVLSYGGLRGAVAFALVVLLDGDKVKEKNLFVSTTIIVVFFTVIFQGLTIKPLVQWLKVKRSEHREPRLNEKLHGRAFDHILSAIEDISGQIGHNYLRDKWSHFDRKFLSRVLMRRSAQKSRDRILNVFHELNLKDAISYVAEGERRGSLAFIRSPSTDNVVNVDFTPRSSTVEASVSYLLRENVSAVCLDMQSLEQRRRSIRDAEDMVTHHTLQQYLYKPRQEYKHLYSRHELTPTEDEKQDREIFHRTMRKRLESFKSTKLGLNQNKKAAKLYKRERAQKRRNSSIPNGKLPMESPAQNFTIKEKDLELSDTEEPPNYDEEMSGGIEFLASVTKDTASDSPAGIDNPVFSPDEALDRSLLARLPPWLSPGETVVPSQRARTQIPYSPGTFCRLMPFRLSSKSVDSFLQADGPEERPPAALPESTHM
Nature of the experiment: Recovery of intracellular pH (pHi) after acidification in LAP1 cells stably expressing NHE3 (BCECF fluorescence, FLIPR). The experiment is classed as cell-based. The settings on record: LAP1 cells stably expressing NHE3; pH recovery after acidification; range 1 is % inhibition at 10 μM; read-out: Activity range (inhibitory effect on NHE3).

As for `N[C@H]1CCCN([C@@H]2Cc3ccccc3[C@H]2Oc2ccc(-n3cncn3)cc2)C1` (racemic) [Example 172, (S)-1-[rac-trans-(1,2)-1-(4-[1,2,4]triazol-1-ylphenoxy)indan-2-yl]piperidin-3-ylamine], the IC50 is 1000 to 10000 nM.
Consider `CS(=O)(=O)c1ccc(O[C@H]2c3cc(Cl)cc(Cl)c3C[C@@H]2N2CCC(N)(C(F)(F)F)C2)cc1` (mixture of isomers) [Example 302, 1-[trans-(1S,2S)-4,6-dichloro-1-(4-methanesulfonylphenoxy)indan-2-yl]-3-trifluoromethylpyrrolidin-3-ylamine], for which the inhibition at 10 µM fell in the range of 20 to 50%.
For `N#Cc1csc(-c2ccc(O[C@@H]3c4ccccc4C[C@H]3N3CCC[C@@H](N)C3)cc2)n1` (racemic) [Example 381, 2-{4-[rac-trans-(1,2)-2-((R)-3-aminopiperidin-1-yl)indan-1-yloxy]phenyl}thiazole-4-carbonitrile], the IC50 was 1000 to 10000 nM.
Same read-out and setting: the result for `Nc1cccc(O[C@@H]2c3ccccc3C[C@H]2N2CCCC2)c1` (racemic) [Example 401, 3-(rac-trans-(1,2)-2-pyrrolidin-1-ylindan-1-yloxy)phenylamine] reads 1000 to 10000 nM.
For `N#Cc1ccc(O[C@H]2c3ccccc3CC[C@@H]2N2CCC[C@H](N)C2)cc1F` (racemic) [Example 530, 4-[rac-trans-(1,2)-2-((S)-3-aminopiperidin-1-yl)-1,2,3,4-tetrahydronaphthalen-1-yloxy]-2-fluorobenzonitrile], the inhibition at 10 µM lay in the range of 20 to 50%.
On the same count and under the same terms, the value for `N#Cc1ccc(CO[C@H]2c3cc(Cl)cc(Cl)c3C[C@@H]2N2CC[C@@H](O)C2)c(F)c1` [Example 482, 4-[(1S,2S)-4,6-dichloro-2-((R)-3-hydroxypyrrolidin-1-yl)indan-1-yloxymethyl]-3-fluorobenzonitrile] was 20 to 50%.
`CN1CCN(S(=O)(=O)c2ccc(O[C@H]3c4cc(Cl)cc(Cl)c4C[C@@H]3N3CC[C@@H](O)C3)cc2)CC1` [Example 742, (R)-1-{trans-(1S,2S)-4,6-Dichloro-1-[4-(4-methyl-piperazine-1-sulfonyl)-phenoxy]-indan-2-yl}-pyrrolidin-3-ol]: the IC50 was 1000 to 10000 nM.
The same measure, in the same setting: the result for `C[C@H]1CN([C@H]2Cc3c(Cl)cc(Cl)cc3[C@@H]2Oc2ccc(S(C)(=O)=O)cc2)CCN1` [Example 197, (S)-1-[trans-(1S,2S)-4,6-dichloro-1-(4-methanesulfonylphenoxy)indan-2-yl]-3-methylpiperazine] reads < 1000 nM.
Still for that read-out and setting: the value for `N#Cc1ccc(O[C@H]2c3cc(Cl)cc(Cl)c3C[C@@H]2N2CCNCC2)c(F)c1` [Example 456, 4-((1S,2S)-4,6-dichloro-2-piperazin-1-ylindan-1-yloxy)-3-fluorobenzonitrile] was < 1000 nM; that for `Cc1nc2cc(O[C@@H]3c4ccccc4C[C@H]3N3CCC[C@@H](N)C3)ccc2s1` (racemic) [Example 47, (R)-1-[rac-trans-(1,2)-1-(2-methylbenzothiazol-5-yloxy)indan-2-yl]piperidin-3-ylamine] was < 1000 nM.
On the same count and under the same terms, the value for `N[C@@H]1CCCN([C@H]2CCc3ccccc3[C@@H]2Oc2ccc(-n3cncn3)cc2)C1` (racemic) [Example 61, (R)-1-[rac-trans-(1,2)-1-(4-[1,2,4]triazol-1-ylphenoxy)-1,2,3,4-tetrahydronaphthalen-2-yl]piperidin-3-ylamine] was 1000 to 10000 nM.
`c1ccc2c(c1)C[C@@H](N1C[C@H]3CNC[C@H]3C1)[C@@H]2Oc1ccc2ccncc2c1` (racemic) [Example 589, 7-[rac-trans-(1,2)-2-(Hexahydropyrrolo[3,4-c]pyrrol-2-yl)indan-1-yloxy]isoquinoline]: the IC50 is 1000 to 10000 nM.
`CN(C)C(=O)Cc1ccc(O[C@H]2c3ccccc3CC[C@@H]2N2CCC[C@@H](N)C2)cc1` (racemic) [Example 380, 2-{4-[rac-trans-(1,2)-2-((R)-3-aminopiperidin-1-yl)-1,2,3,4-tetrahydronaphthalen-1-yloxy]phenyl}-N,N-dimethylacetamide]: the inhibition at 10 µM fell in the range of 20 to 50%.
Turning to `Cc1noc(C)c1-c1cc(O[C@H]2c3ccccc3C[C@@H]2N2CCCC2)ccc1F` [Example 489, 4-[2-fluoro-5-(trans-(1S,2S)-2-pyrrolidin-1-ylindan-1-yloxy)phenyl]-3,5-dimethylisoxazole], the inhibition at 10 µM fell in the range of 20 to 50%.
Still for that read-out and setting: the value for `N[C@@H]1CCCN([C@H]2CCc3ccccc3[C@@H]2Oc2cccc(F)c2)C1` (racemic) [Example 57, (R)-1-[rac-trans-(1,2)-1-(3-fluorophenoxy)-1,2,3,4-tetrahydronaphthalen-2-yl]piperidin-3-ylamine] was 20 to 50%.
`CN(c1ccc(O[C@H]2c3cc(Cl)cc(Cl)c3C[C@@H]2N2CC[C@@H](O)C2)cc1)S(C)(=O)=O` [Example 698, N-{4-[(1S,2S)-4,6-dichloro-2-((R)-3-hydroxypyrrolidin-1-yl)indan-1-yloxy]phenyl}-N-methylmethanesulfonamide]: the IC50 was < 1000 nM.
For `N#Cc1ccc2cccc(O[C@H]3c4ccccc4CC[C@@H]3N3CCOCC3)c2n1` (racemic) [Example 594, 8-(rac-trans-(1,2)-2-morpholin-4-yl-1,2,3,4-tetrahydronaphthalen-1-yloxy)quinoline-2-carbonitrile], the inhibition at 10 µM lay in the range of 20 to 50%.
As for `O=C1OCCN1c1ccc(Cl)c(O[C@H]2c3cc(Cl)cc(F)c3C[C@@H]2N2CC[C@@H](O)C2)c1` [Example 439, 3-{4-chloro-3-[(1S,2S)-6-chloro-4-fluoro-2-((R)-3-hydroxypyrrolidin-1-yl)indan-1-yloxy]phenyl}oxazolidin-2-one], the IC50 is < 1000 nM.
The same measure, in the same setting: the value for `N[C@@H]1CCCN([C@@H]2Cc3ccccc3[C@H]2Oc2ccc(S(N)(=O)=O)c(Cl)c2Cl)C1` (racemic) [Example 518, 4-[rac-trans-(1,2)-2-((R)-3-aminopiperidin-1-yl)indan-1-yloxy]-2,3-dichlorobenzenesulfonamide] was < 1000 nM.
As for `CN(C)[C@H]1Cc2c(Cl)cc(Cl)cc2[C@@H]1Oc1ccc(-n2ccnc2)cc1` (racemic) [Example 216, [rac-trans-(1,2)-4,6-dichloro-1-(4-imidazol-1-ylphenoxy)indan-2-yl]dimethylamine], the inhibition at 10 µM was 20 to 50%.
On to `NC(=O)Nc1cccc(O[C@@H]2c3ccccc3C[C@H]2N2CCC[C@@H](N)C2)c1` (racemic) [Example 231, {3-[rac-trans-(1,2)-2-((R)-3-aminopiperidin-1-yl)indan-1-yloxy]phenyl}urea], for which the IC50 is < 1000 nM.
For the compound `Cc1c(O[C@H]2c3cc(Cl)cc(F)c3C[C@@H]2N2CC[C@@H](O)C2)ccc(-n2c(C)nnc2C)c1C` [Example 141, (R)-1-{trans-(1S,2S)-6-chloro-1-[4-(3,5-dimethyl-[1,2,4]triazol-4-yl)-2,3-dimethylphenoxy]-4-fluoroindan-2-yl}pyrrolidin-3-ol], the IC50 was < 1000 nM.
Turning to `CC(=O)Nc1cccc(O[C@H]2c3ccccc3C[C@@H]2N2CCCC2)n1` (racemic) [Example 668, N-[6-(rac-trans-(1,2)-2-pyrrolidin-1-ylindan-1-yloxy)-pyridin-2-yl]acetamide], the IC50 was < 1000 nM.
Still for that read-out and setting: the value for `N#Cc1cc(Cl)ccc1O[C@@H]1c2ccccc2C[C@H]1N1CCC(N)C1` (mixture of isomers) [Example 375, 2-[rac-trans-(1,2)-2-(3-aminopyrrolidin-1-yl)indan-1-yloxy]-5-chlorobenzonitrile] was 1000 to 10000 nM.
